Laboratory results: the NIST ThermoML archive (doi:10.1021/je049671t)

Assay: xn = mol fraction of the nth substance listed
Conditions: Liquid, Vibrating tube method

CC(C)C [2-methylpropane] + CCC
Conditions	mass density [kg/m3]
260 K, 7006.2 kPa, x2 = 0.25	595.15
280 K, 467.2 kPa, x2 = 0.499	549.36
280 K, 478.7 kPa, x2 = 0.75	535.35
280 K, 500.3 kPa, x2 = 0.25	562.94
280 K, 952.8 kPa, x2 = 0.499	550.3
280 K, 990.6 kPa, x2 = 0.75	536.42
280 K, 1004.7 kPa, x2 = 0.25	563.86
280 K, 1462.8 kPa, x2 = 0.25	564.67
280 K, 1514 kPa, x2 = 0.499	551.39
280 K, 1517.2 kPa, x2 = 0.75	537.51
280 K, 2007.8 kPa, x2 = 0.25	565.62
280 K, 2007.8 kPa, x2 = 0.499	552.34
280 K, 2029.6 kPa, x2 = 0.75	538.54
280 K, 2489.1 kPa, x2 = 0.499	553.22
280 K, 2510.3 kPa, x2 = 0.75	539.5
280 K, 2513.6 kPa, x2 = 0.25	566.51
280 K, 2999.1 kPa, x2 = 0.25	567.36
280 K, 3019.4 kPa, x2 = 0.75	540.5
280 K, 3022.9 kPa, x2 = 0.499	554.21
280 K, 3488.8 kPa, x2 = 0.25	568.19
280 K, 3519.6 kPa, x2 = 0.499	555.1
280 K, 3522.3 kPa, x2 = 0.75	541.47
280 K, 3992 kPa, x2 = 0.499	555.95
280 K, 3992.4 kPa, x2 = 0.25	569.03
280 K, 4026.3 kPa, x2 = 0.75	542.43
280 K, 4516.8 kPa, x2 = 0.25	569.91
280 K, 4518.6 kPa, x2 = 0.499	556.87
280 K, 4544.4 kPa, x2 = 0.75	543.38
280 K, 4965.2 kPa, x2 = 0.75	544.17
280 K, 4979.1 kPa, x2 = 0.25	570.66
280 K, 5014 kPa, x2 = 0.499	557.72
280 K, 5482.8 kPa, x2 = 0.499	558.54
280 K, 5485 kPa, x2 = 0.25	571.47
280 K, 5530.9 kPa, x2 = 0.75	545.19
280 K, 5989.4 kPa, x2 = 0.25	572.28
280 K, 6012.9 kPa, x2 = 0.75	546.05
280 K, 6027 kPa, x2 = 0.499	559.46
280 K, 6488.2 kPa, x2 = 0.75	546.89
280 K, 6525.9 kPa, x2 = 0.499	560.31
280 K, 6532.5 kPa, x2 = 0.25	573.13
280 K, 6931.1 kPa, x2 = 0.75	547.66
280 K, 6938.9 kPa, x2 = 0.499	560.98
280 K, 6965.6 kPa, x2 = 0.25	573.82
280 K, 6968.2 kPa, x2 = 0.25	573.78
300 K, 824.3 kPa, x2 = 0.75	507.35
300 K, 996.8 kPa, x2 = 0.499	523.82
300 K, 1001.6 kPa, x2 = 0.25	538.53
300 K, 1503.7 kPa, x2 = 0.25	539.71
300 K, 1519.6 kPa, x2 = 0.499	525.17
300 K, 1534 kPa, x2 = 0.75	509.38
300 K, 2006.6 kPa, x2 = 0.25	540.87
300 K, 2026.1 kPa, x2 = 0.499	526.45
300 K, 2028.3 kPa, x2 = 0.75	510.77
300 K, 2493.2 kPa, x2 = 0.75	512.04
300 K, 2510.6 kPa, x2 = 0.25	542.01
300 K, 2530.4 kPa, x2 = 0.499	527.7
300 K, 3014.6 kPa, x2 = 0.25	543.13
300 K, 3028.7 kPa, x2 = 0.75	513.47
300 K, 3043.4 kPa, x2 = 0.499	528.93
300 K, 3486.8 kPa, x2 = 0.499	529.95
300 K, 3488.8 kPa, x2 = 0.25	544.16
300 K, 3519.2 kPa, x2 = 0.75	514.75
300 K, 3995.5 kPa, x2 = 0.499	531.16
300 K, 3996.7 kPa, x2 = 0.75	515.97
300 K, 4012 kPa, x2 = 0.25	545.28
300 K, 4467.1 kPa, x2 = 0.75	517.17
300 K, 4483.4 kPa, x2 = 0.25	546.25
300 K, 4503.6 kPa, x2 = 0.499	532.34

mass density [kg/m3]
Conditions	x2 = 0.25	x2 = 0.499	x2 = 0.75
260 K	585.98	–	560.96
280 K	562.49	549.15	535.32
